Tested on: ring-stage parasites
Assay: Parasite reduction ratio assay
Format: cell-based, Plasmodium falciparum
Experimental: Parasite reduction ratio assay. This was performed as previously described 9,10.
Briefly, asynchronous ring -stage parasites at 0.5% parasitemia and 2% haematocrit were exposed to compounds at 10 x EC50 of growth for five days with daily drug renewal. After each 24 h, a well from each treatment group was taken and washed three times in complete RPMI and final volume adjusted to 2% haematocrit. The washed culture was then aliquoted into a 96 well U-bottom plate and a 1:3 serial dilution into fresh uninfected RBCs was performed with four technical replicates for each time point. Plates were maintained in normal culturing conditions: media was replaced, and fresh RBCs given 1-2 times a week for three weeks, after which parasite growth was measured via lactate dehydrogenase assays. The number of viable parasites was calculated using the formula xn-1 +1, where x is the dilution factor and n is the number of wells that contain parasite growth. The viable parasite value was then expressed in log units and parasite reduction ratio was calculated as a decrease in […]

`CCN(CC)CCCC(C)Nc1ccnc2cc(Cl)ccc12` (centres unmarked) [CQ, chloroquine, reference compound] was tested, and the killing profile (10xEC50: 75 nM CQ, 60 nM W-991) was “fast-acting”, the PRR (Replicate 1, PRR calculations) was 4.528 and the “log(parasite viability) +1” value (Replicate 1, T=1) was 2.863. For the same compound, the Parasite viability (Replicate 1, T=1, 1:3 dilution) was 729, the “log(parasite viability) +1” value (Replicate 1, T=2) was 0.6021 and the Parasite viability (Replicate 1, T=2, 1:3 dilution) was 3. The “log(parasite viability) +1” value (Replicate 1, T=3) was 0, the Parasite viability (Replicate 1, T=3, 1:3 dilution) was 0 and the “log(parasite viability) +1” value (Replicate 1, T=4) was 0. For the same compound, the Parasite viability (Replicate 1, T=4, 1:3 dilution) was 0, the “log(parasite viability) +1” value (Replicate 1, T=5) was 0 and the Parasite viability (Replicate 1, T=5, 1:3 dilution) was 0. The “log(parasite viability) +1 used in PRR calculations” value (Replicate 2, Hours 0) was 5.248, the PRR (Replicate 2, PRR calculations) was 2.861 and the “Parasite viability +1” value (Replicate 2, T=1) was 19684. For the same compound, the “log(parasite viability) +1” value (Replicate 2, T=1) was 4.294, the Parasite viability (Replicate 2, T=1, 1:3 dilution) was 19683 and the “Parasite viability +1” value (Replicate 2, T=2) was 10. The “log(parasite viability) +1” value (Replicate 2, T=2) was 1, the Parasite viability (Replicate 2, T=2, 1:3 dilution) was 9 and the “Parasite viability +1” value (Replicate 2, T=3) was 244. For the same compound, the “log(parasite viability) +1” value (Replicate 2, T=3) was 2.387, the Parasite viability (Replicate 2, T=3, 1:3 dilution) was 243 and the “Parasite viability +1” value (Replicate 2, T=4) was 82. The “log(parasite viability) +1” value (Replicate 2, T=4) was 1.914, the Parasite viability (Replicate 2, T=4, 1:3 dilution) was 81 and the “Parasite viability +1” value (Replicate 2, T=5) was 1. The “log(parasite viability) +1” value (Replicate 2, T=5) was 0, the Parasite viability (Replicate 2, T=5, 1:3 dilution) was 0 and the “log(parasite viability) +1” value (replicate 3, 0 hours, start value (UT T=0) used in PRR calculations) was 5.248. The “Parasite viability (1:3 dilution)” value (replicate 3, T=1) was 6561, the “log(parasite viability) +1” value (replicate 3, T=1) was 3.817 and the “Parasite viability (1:3 dilution)” value (replicate 3, T=2) was 9. The “log(parasite viability) +1” value (replicate 3, T=2 (48 hours in PRR calculations)) was 1, the “Parasite viability (1:3 dilution)” value (replicate 3, T=3) was 0 and the “log(parasite viability) +1” value (replicate 3, T=3 (72 hours in PRR calculations)) was 0. For the same compound, the “Parasite viability (1:3 dilution)” value (replicate 3, T=4) was 0, the “log(parasite viability) +1” value (replicate 3, T=4) was 0 and the “Parasite viability (1:3 dilution)” value (replicate 3, T=5) was 0. The “log(parasite viability) +1” value (replicate 3, T=5 (120 hours in PRR calculations)) was 0 and the PRR (replicate 3, difference of log viability over 48 h (CQ 0-48 hours, W991 72-120 hours)) was 4.248.

From publication PMC11189555, “Aryl amino acetamides prevent Plasmodium falciparum ring development via targeting the lipid-transfer protein PfSTART1” (Nature Communications, 2024)
